# Assay results published in ChEMBL document CHEMBL1201862, “PubChem BioAssay data set” (2004).
# The source made the active and inactive calls. Cut-off read from the data, not from the text of the source, for most assays here: actives have a measured EC50 and inactives only a lower limit.
# Assays:
# [1] = system: Streptococcus; assay: Group A Streptococcus viability loss, dose response, counter-screen for streptokinase expression inhibitor project, luminescence, BacTiterGlo (AID 1915); format: functional, organism-based;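 note: potency for reduction of bacterial viability or growth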
# [2] = system: Streptococcus sp. 'group A'; assay: growth inhibition of control SK(-) GAS strain, dose response, counter-screen for streptokinase expression inhibitor project, luminescence, kanamycin, BacTiterGlo, confirmation (AID 1900); format: functional, organism-based
# [3] = target: T1, Streptokinase A (Streptococcus pyogenes serotype M1, UniProt P10520); assay: S. pyogenes streptokinase expression inhibitors, potency, dose response, plasminogen activation absorbance, OD405 (AID 1914); format: functional, Streptococcus pyogenes M1 GAS;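 note: secreted streptokinase activity via plasminogen activation per viability signal from cell pellet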
# T1 sequence (P10520 whole entry): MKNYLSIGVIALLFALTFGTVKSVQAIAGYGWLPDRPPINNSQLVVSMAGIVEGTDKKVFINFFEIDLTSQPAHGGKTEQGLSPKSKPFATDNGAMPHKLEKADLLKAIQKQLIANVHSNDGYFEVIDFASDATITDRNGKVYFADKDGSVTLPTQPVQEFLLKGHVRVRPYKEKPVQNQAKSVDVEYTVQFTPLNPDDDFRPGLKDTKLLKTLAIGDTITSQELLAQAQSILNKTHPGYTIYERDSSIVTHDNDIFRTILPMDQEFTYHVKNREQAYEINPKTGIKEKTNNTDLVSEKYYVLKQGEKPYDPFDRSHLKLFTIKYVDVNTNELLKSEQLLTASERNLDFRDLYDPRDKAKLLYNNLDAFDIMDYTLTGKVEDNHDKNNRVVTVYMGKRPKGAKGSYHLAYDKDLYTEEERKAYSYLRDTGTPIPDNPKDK
# [4] = inhibitors of intracellular T. cruzi replication, confirmation, NIH3T3 host cells, beta-gal luminescence (AID 2044); format: functional, cell-based;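 note: intracellular parasites grown in NIH/3T3 mouse fibroblasts as host cells; luminescent beta-galactosidase reporter signal from transgenic T. cruzi replicating inside host cells; inhibitors lower the luminescence signal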
# [5] = cytotoxicity toward NIH3T3 fibroblasts, dose response, counter-screen, cell-based, ATP luminescence, mouse fibroblasts (AID 2010); format: functional;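 note: cells exposed to compound for about 90 hours before reading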
# [6] = target: T2, Heat shock factor protein 1 (Mus musculus, UniProt P38532); assay: inhibition of MG132-induced HSE-luciferase signal, confirmation, cell-based, NIH3T3, luminescence, dose retest (AID 2382); format: functional;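 note: NIH3T3 fibroblasts with HSF1-driven luciferase reporter stressed by proteasome inhibitor MG132; luminescence from HSF1-driven luciferase expression after 8 hours of MG132 stress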
# T2 sequence (P38532 whole entry): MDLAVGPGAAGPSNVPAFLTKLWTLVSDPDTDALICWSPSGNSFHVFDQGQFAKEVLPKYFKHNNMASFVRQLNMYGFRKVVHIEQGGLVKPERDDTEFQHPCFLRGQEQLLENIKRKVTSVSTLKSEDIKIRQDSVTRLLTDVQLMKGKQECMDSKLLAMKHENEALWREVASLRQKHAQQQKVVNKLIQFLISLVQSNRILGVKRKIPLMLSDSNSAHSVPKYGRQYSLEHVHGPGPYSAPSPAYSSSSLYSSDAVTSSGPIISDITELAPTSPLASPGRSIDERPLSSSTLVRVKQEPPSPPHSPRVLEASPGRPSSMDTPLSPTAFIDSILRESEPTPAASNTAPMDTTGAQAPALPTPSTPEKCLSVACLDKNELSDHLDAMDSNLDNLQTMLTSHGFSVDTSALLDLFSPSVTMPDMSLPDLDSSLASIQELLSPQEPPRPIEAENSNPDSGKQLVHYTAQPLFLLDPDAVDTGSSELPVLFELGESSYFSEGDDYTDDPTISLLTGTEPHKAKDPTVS
# [7] = target: T3, Rac GTPase-activating protein 1 (Homo sapiens, UniProt Q9H0H5); assay: MgcRacGAP GTPase-activating activity inhibitors, confirmation, biochemical, ADP Hunter fluorescence, primary and confirmatory (AID 624330); format: functional
# T3 sequence (Q9H0H5 whole entry): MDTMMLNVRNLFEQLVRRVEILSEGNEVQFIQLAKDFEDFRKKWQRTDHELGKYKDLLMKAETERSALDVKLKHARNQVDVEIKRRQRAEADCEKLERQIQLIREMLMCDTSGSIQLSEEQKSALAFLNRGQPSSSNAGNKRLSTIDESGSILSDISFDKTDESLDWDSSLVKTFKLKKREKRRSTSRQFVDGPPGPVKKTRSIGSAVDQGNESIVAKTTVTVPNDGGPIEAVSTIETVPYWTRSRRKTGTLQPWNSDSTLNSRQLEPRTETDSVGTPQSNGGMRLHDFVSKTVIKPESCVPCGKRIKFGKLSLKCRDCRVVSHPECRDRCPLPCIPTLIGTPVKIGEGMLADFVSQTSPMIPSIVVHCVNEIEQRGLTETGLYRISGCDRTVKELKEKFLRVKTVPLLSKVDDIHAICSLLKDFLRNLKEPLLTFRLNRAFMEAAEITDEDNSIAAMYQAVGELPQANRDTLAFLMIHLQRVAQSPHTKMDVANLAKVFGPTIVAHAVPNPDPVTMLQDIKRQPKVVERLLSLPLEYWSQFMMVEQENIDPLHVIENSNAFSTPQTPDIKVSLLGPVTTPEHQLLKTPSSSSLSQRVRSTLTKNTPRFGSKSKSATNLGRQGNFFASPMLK
compound,measurement,setting,value
O=C(/C=C/c1ccccc1)NC(=S)NNC(=O)c1ccco1,EC50,[1],11.2 µM (active)
same,EC50,[2],3.86 µM (active)
same,EC50,[3],> 150 µM (not active)
CC(C)(C)c1ccc(OCC(=O)Nc2ccc(C(=O)Nc3ccccc3C(=O)O)cc2)cc1,EC50,[1],22.9 µM (active)
same,EC50,[2],4.27 µM (active)
CCOc1ccc(C2Nc3ccc4ccccc4c3-c3c2c(=O)oc2ccccc32)cc1 (configuration not stated),EC50,[4],1.26 µM (active)
same,EC50,[5],> 60 µM (not active)
O=C(c1cccc([N+](=O)[O-])c1)N1CCc2ccccc21,EC50,[6],> 195 µM (not active)
CCCOc1ccc(Cc2c(Cl)nc(SC)nc2N(C)C)cc1,EC50,[1],> 150 µM (not active)
same,EC50,[2],20.8 µM (active)
same,EC50,[3],24.5 µM (active)
Cc1cccc(C)c1NC(=O)N1C(C(=O)O)CSC1C(=O)O (configuration not stated),EC50,[6],> 195 µM (not active)
COc1cccc(CCNCc2cccc(C(F)(F)F)c2)c1,EC50,[4],0.97 µM (active)
same,EC50,[5],> 30 µM (not active)
CCOC(=O)C1=C(N)OC2=C(C(=O)CC(C)(C)C2)C1c1ccccc1OCC#N (configuration not stated),EC50,[6],> 195 µM (not active)
CC12CCC(C(=O)N3CCN(C(c4ccccc4)c4ccccc4)CC3)(OC1=O)C2(C)C (configuration not stated),EC50,[4],1.56 µM (active)
same,EC50,[5],> 60 µM (inconclusive)
Cc1onc(-c2c(Cl)cccc2Cl)c1C(=O)NC1C(=O)N2C1SC(C)(C)C2C(=O)O (configuration not stated),EC50,[1],< 0.06 µM (active)
same,EC50,[2],< 0.06 µM (active)
CC1(C)S[C@@H]2[C@H](NC(=O)COc3ccccc3)C(=O)N2C1C(=O)OCC1CCCCC1 (some centres not stated),EC50,[1],14 µM (active)
same,EC50,[2],9.95 µM (active)
same,EC50,[3],> 150 µM (not active)
NC(=O)COC(=O)c1cc(O)nc2ccccc12,EC50,[6],> 195 µM (not active)
CCN(CC)c1ccc(NC(=O)c2ccc3c(c2)OCO3)cc1,IC50,[7],52.9 µM (active)
CCN(CC)CCCNC(=O)C1CCC(CNS(=O)(=O)c2ccc(Cl)cc2)CC1 (configuration not stated),EC50,[6],> 195 µM (not active)
CSc1ccccc1NC(=O)CNCCCN1CCOCC1,IC50,[7],81.9 µM (active)
COc1cc(NC(=O)c2ccco2)c(OC)cc1NC(=O)Nc1cccc(Cl)c1,EC50,[4],1.79 µM (active)
same,EC50,[5],> 60 µM (not active)
CC(=O)N(C)C1=C(O)C(=O)c2ccccc2C1=O,EC50,[6],> 195 µM (not active)
c1cc2c(cc1CN1CCN(C3CCCCCC3)CC1)OCO2,IC50,[7],91.9 µM (active)
CC(=O)Nc1cc(C(=O)N(C)Cc2ccco2)ccc1Sc1ccc(C)cc1,EC50,[6],> 195 µM (not active)
Cc1nn(Cc2ccccc2Cl)c2sc(C(=O)Nc3ccccc3N3CCOCC3)cc12,EC50,[1],> 150 µM (not active)
same,EC50,[2],45.4 µM (active)
same,EC50,[3],> 150 µM (not active)
CSCc1nnc2n1-c1ccc(Cl)cc1C(c1ccccc1)=NC2,EC50,[6],> 195 µM (not active)
CCn1c(COc2ccc(C)cc2)nnc1SCC(=O)Nc1ccc2c(c1)OCCO2,EC50,[6],> 195 µM (not active)
CCCn1c(NC(=O)c2ccccc2Br)nc2ccccc21,EC50,[1],30.5 µM (active)
same,EC50,[2],10.2 µM (active)
same,EC50,[3],> 150 µM (not active)
COc1ccc(C2CC(c3cccs3)=NN2C(=O)c2ccc(Br)o2)cc1 (configuration not stated),EC50,[1],27.4 µM (active)
same,EC50,[2],6.42 µM (active)
same,EC50,[3],> 150 µM (not active)
COc1ccc(N2CCN(C(=O)CCCN3C(=O)c4cccc5cccc(c45)C3=O)CC2)cc1,EC50,[4],2.45 µM (active)
same,EC50,[5],> 60 µM (inconclusive)
O=[N+]([O-])c1ccc(OCCN2CCNCC2)cc1,EC50,[4],0.132 µM (active)
same,EC50,[5],> 60 µM (not active)
Cc1ccccc1OCCC(=O)Nc1ccc(S(=O)(=O)N(C)C2CCN(C)CC2)cc1,EC50,[4],0.324 µM (active)
same,EC50,[5],> 30 µM (not active)
CCc1cccc(CC)c1N=C(S)N1CCn2cccc2C1c1cccnc1 (configuration not stated),EC50,[6],> 195 µM (not active)
COc1ccccc1C(O)(C(=O)N(NC(C)=O)c1ccccc1)c1ccccc1OC,EC50,[6],> 195 µM (not active)
CC1CN(CCOCCOc2ccccc2-c2ccccc2)CC(C)O1 (configuration not stated),IC50,[7],87.5 µM (active)
COc1cc2c(cc1NC(=S)Nc1cccc3ccccc13)oc1ccccc12,IC50,[7],70.2 µM (active)
CCCCCCCCN1[C@@H](CC(=O)OCC)c2ccc(C(F)(F)F)cc2S1(=O)=O,EC50,[4],0.87 µM (active)
same,EC50,[5],37.8 µM (active)
O=C1[C@H]2[C@@H](c3ccc(Cl)cc3)N3C(=O)N(c4cccc(F)c4)C(=O)[C@@]3(Cc3ccc(Cl)cc3)[C@H]2C(=O)N1C1CCCCC1,EC50,[4],1.21 µM (active)
same,EC50,[5],> 30 µM (not active)
CCC(N=C(S)NCc1ccccc1)C(=O)O (configuration not stated),EC50,[6],> 195 µM (not active)
O=C(c1ccc(Cl)cc1)c1cnc(Nc2ccccc2Cl)s1,EC50,[1],30.5 µM (active)
same,EC50,[2],18.9 µM (active)
same,EC50,[3],> 150 µM (not active)
O=C(CN1CCN(Cc2ccccc2)CC1)Nc1ccc(F)c(F)c1,IC50,[7],73.9 µM (active)
NNc1nc(Nc2ccccc2)nc(Nc2ccccc2)n1,EC50,[1],> 150 µM (not active)
same,EC50,[2],6.74 µM (active)
same,EC50,[3],23.5 µM (active)
COc1ccc(CCNC(=O)C(=O)Nc2ccc3nc4n(c(=O)c3c2)CCCCC4)cc1OC,EC50,[1],> 150 µM (not active)
same,EC50,[2],11.3 µM (active)
same,EC50,[3],> 150 µM (not active)
CCN1CCN(CC(=O)Nc2nc3ccc(OC)cc3s2)CC1,IC50,[7],74.3 µM (active)
Cc1cccc(NC(S)=NC(NC(=O)OCc2ccccc2)C(Cl)(Cl)Cl)c1 (configuration not stated),EC50,[4],3.39 µM (active)
same,EC50,[5],> 60 µM (not active)
O=S(=O)(c1ccc2ccccc2c1)N1CCN(C2CCN(Cc3ccccc3)CC2)CC1,IC50,[7],108 µM (active)
CN1CCN(c2ccc([N+](=O)[O-])c(N3CCCCC3)c2)CC1,EC50,[4],0.661 µM (active)
same,EC50,[5],> 30 µM (not active)
CC/C(=N\c1ccc(N)cc1)C1=C(O)C(C(=O)OC)C(C)(C)CC1=O (configuration not stated),IC50,[7],6.8 µM (active)
COc1ccc(NC(=O)CNCc2cccs2)c(OC)c1,IC50,[7],284 µM (active)
CCCCNC(=O)C(c1ccc(OCC(=O)OC)c(C(=O)OC)c1)N(CCc1c[nH]c2ccccc12)C(=O)CCCCCN1C(=O)NC(c2ccc(-c3ccccc3)cc2)C(C(=O)OCc2ccccc2)=C1C (configuration not stated),EC50,[6],> 195 µM (not active)
C=CCc1c(C)nc(-c2ccccc2)nc1N/N=C/c1ccncc1,EC50,[4],0.941 µM (active)
same,EC50,[5],6.59 µM (active)
CN1CCN(/C=N/C2=NN(c3cccc(C(F)(F)F)c3)CC2)CC1,IC50,[7],33.9 µM (active)
Cc1ccc(S(=O)(=O)N2CCN(CC(=O)N/N=C\c3ccncc3)CC2)cc1,EC50,[6],> 195 µM (not active)
CC/C(=N\NS(=O)(=O)c1ccc(C)cc1)c1ccco1,EC50,[6],> 195 µM (not active)
CCCOc1ccc(CC(=O)N/N=C\c2ccc(F)cc2)cc1,EC50,[6],> 195 µM (not active)
CC(O/N=C\c1ccccc1O)C(=O)Nc1ccccc1C(=O)N1CCOCC1 (configuration not stated),EC50,[6],> 195 µM (not active)
O=C1c2ccccc2C2=Nc3ccccc3SC(c3cccc(F)c3)C12 (configuration not stated),EC50,[4],1.27 µM (active)
same,EC50,[5],> 60 µM (not active)
CCN1CCN(C(=O)N[C@@H](C(=O)N[C@@H]2C(=O)N3[C@@H]2SC(C)(C)[C@@H]3C(=O)O)c2ccccc2)C(=O)C1=O [PIPERACILLIN SODIUM],EC50,[1],0.746 µM (active)
same,EC50,[2],0.361 µM (active)
